From patent US7323490B2, “Pyrrole compounds and uses thereof” (Ambit Biosciences Corporation, priority 2003, dated 2008) come the findings set out here.

One assay deals with T1, CLB2 (Homo sapiens, UniProt P22676).
T1 construct: made in house; host or cells: T7 phage amplified in E. coli
T1 sequence (P22676 1-271): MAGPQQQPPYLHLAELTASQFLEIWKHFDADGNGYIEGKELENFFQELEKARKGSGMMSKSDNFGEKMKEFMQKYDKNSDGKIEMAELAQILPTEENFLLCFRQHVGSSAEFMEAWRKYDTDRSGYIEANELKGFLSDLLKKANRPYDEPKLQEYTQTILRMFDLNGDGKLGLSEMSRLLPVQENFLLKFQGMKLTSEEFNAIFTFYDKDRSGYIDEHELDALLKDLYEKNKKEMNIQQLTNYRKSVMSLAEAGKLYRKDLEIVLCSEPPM
Put plainly: T7 phage display competition binding assay (immobilized atorvastatin), CLB2. Particulars: soluble competitor vs atorvastatin-coated affinity matrix; T7 phage displaying CLB2. The source says:
(§1) The T7 phage displaying human PDE6D and CLB2 were obtained following the procedure of WO 01/18234, published Mar. 15, 2001, and U.S. patent applications Ser. No. 10/115,442, “Phage Display Affinity Filter and Forward Screen,” filed Apr. 2, 2002 and Ser. No. 10/214,654, “Uncoupling DNA Insert Propagation and Protein Display,” filed Aug. 7, 2002. […] The phage eluate was then amplified by growth in E. coli and the affinity enrichment procedure was repeated.
(§2) The dissociation constants, Kd's, for the interaction between the pyrrole compounds and the novel targets were obtained following the procedure of the co-pending patent applications U.S. Ser. Nos. 10/115,442, “Phage Display Affinity Filter and Forward Screen,” filed Apr. 2, 2002 and 60/480,587, “Protein Family Profiling Tool and Methods,” filed Jun. 20, 2003.

Assay [1] addresses T2, PDE6D (Homo sapiens, UniProt O43924). In words: phage-based competition binding screen at 2 μM. Also noted: made in house; host or cells: phage. Particulars: 2 μM competitor, duplicate. Here is the method:
Forty-four molecules were screened for PDE6D binding activity in a standard phage-based competition binding assay, as described in co-pending U.S. patent applications Ser. No. 10/115,442, filed 2 Apr. 2002, and Ser. No. 10/406,797 filed on 2 Apr. 2003 (or PCT International Application PCT/US03/10247 filed 2 Apr. 2003). All compounds were screened in duplicate (duplicate sets of bars) at a concentration of 2 μM.

The target of assay [2] is T2, PDE6D. In words: T7 phage display competition binding assay (immobilized atorvastatin), PDE6D. Also noted: made in house; host or cells: T7 phage amplified in E. coli. As to conditions: soluble competitor vs atorvastatin-coated affinity matrix; T7 phage displaying human PDE6D.
From the text: as §1, §2

Another assay addresses T3, HMG-CoA reductase (Homo sapiens, UniProt P04035).
T3 sequence (P04035 1-888): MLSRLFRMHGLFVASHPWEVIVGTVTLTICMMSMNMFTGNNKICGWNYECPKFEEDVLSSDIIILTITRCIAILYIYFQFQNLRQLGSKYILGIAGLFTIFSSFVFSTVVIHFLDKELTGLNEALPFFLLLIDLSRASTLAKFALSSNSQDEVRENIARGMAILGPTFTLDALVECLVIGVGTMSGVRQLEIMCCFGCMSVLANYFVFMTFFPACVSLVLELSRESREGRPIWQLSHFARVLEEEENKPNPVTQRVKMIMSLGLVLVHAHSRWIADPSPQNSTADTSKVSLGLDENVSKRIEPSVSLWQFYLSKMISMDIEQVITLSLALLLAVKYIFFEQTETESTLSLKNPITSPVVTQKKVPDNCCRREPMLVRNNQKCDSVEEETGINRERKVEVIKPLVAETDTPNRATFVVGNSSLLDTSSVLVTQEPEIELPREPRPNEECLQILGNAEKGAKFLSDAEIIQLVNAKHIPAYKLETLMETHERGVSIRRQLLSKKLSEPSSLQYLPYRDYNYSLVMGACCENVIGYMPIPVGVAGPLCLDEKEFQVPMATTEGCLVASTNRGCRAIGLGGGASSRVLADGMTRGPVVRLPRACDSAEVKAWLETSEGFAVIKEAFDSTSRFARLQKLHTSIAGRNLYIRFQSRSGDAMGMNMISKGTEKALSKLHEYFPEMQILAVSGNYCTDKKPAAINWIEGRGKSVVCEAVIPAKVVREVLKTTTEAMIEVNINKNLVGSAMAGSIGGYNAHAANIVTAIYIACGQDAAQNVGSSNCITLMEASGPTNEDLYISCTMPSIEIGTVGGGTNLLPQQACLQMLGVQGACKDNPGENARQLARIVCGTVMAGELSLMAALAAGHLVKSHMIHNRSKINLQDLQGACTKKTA
Put plainly: enzymatic activity-based HMG-CoA reductase assay. The class given is biochemical. Particulars: concentrations up to 4 μM. As for the experimental part: In addition, compounds 781430, 781066, 780780, 780754, 779974, 781456, 782236, 782756, 783250 and 780520 were tested in enzymatic activity-based HMG-CoA reductase assays. […] Blank cells indicate there was no detectable interaction while the “nd” designation indicates the Kd was not determined.

The term Kd denotes the concentration at which binding is half-saturated. On to `CC(C)c1c(C(=O)Nc2ccccc2)c(-c2ccccc2)c(-c2ccc(F)cc2)n1CCCCCO` [Compound 780676], for which the values for the Kd on CLB2 and at PDE6D [2] were 1.89 µM and 0.061 µM, respectively. In addition, the “fraction of PDE6D-displaying phage bound to immobilized atorvastatin (screen outcome)” value (shortened to “fraction of PDE6D-displaying phage bound”) at PDE6D [1] is on record as “candidate lead compounds”.

Take `COc1ccc(-c2[nH]c(C(C)C)c(C(=O)Nc3ccccc3)c2-c2ccccc2)cc1` [Compound 780988]: the Kd on CLB2 worked out at 6 µM; at PDE6D [2] it was 0.43 µM.

Molecule `CC(C)c1c(C(=O)Nc2ccccc2)c(-c2ccccc2)c(-c2ccc(F)cc2)n1[C@H](C)C(=O)OC(C)(C)C` [Compound 780650] showed a dissociation constant (Kd) at CLB2 of 2.1 µM. That is a single-digit micromolar value.

As for `CC(C)c1c(C(=O)Nc2ccccc2)c(-c2ccccc2)c(-c2ccc(F)cc2)n1CC[C@@H]1C[C@H](CC(=O)O)OC(C)(C)O1` [Compound 782964], the Kd on CLB2 came to 9 µM; at PDE6D [2] it was 0.685 µM.

Take `CC(C)c1c(C(=O)Nc2ccccc2)c(-c2ccccc2)c(-c2ccc(F)cc2)n1CCCN1CCCC1=O` [Compound 780520]: the Kd was determined as 1.85 µM at CLB2 and 0.044 µM on PDE6D [2]. Besides, at HMG-CoA reductase, the “inhibition of the activity of HMG-CoA reductase” value is listed as “none of the tested compounds inhibited”. Also, the “fraction of PDE6D-displaying phage bound” value on PDE6D [1] was “candidate lead compounds”.

For `COCC(C(O)c1ccccc1)n1c(-c2ccc(F)cc2)c(-c2ccccc2)c(C(=O)Nc2ccccc2)c1C(C)C` (centres unmarked) [Compound 780910], the figures for the Kd on CLB2 and on PDE6D [2] were 1 µM and 0.28 µM, respectively.

Molecule `CC(C)c1c(C(=O)Nc2ccccc2)c(-c2ccccc2)c(-c2ccc(F)cc2)n1CC(=O)OC(C)(C)C` [Compound 780546] came in with a Kd at PDE6D [2] of 0.88 µM.

Turning to `CCCCCn1c(-c2ccc(F)cc2)c(-c2ccccc2)c(C(=O)Nc2ccccc2)c1C(C)C` [Compound 782366], on PDE6D [2], the Kd is 0.805 µM. The Kd values of the last two molecules are within 1.5-fold of each other.

`CC(C)c1c(C(=O)Nc2ccccc2)c(-c2ccccc2)c(-c2ccc(F)cc2)n1CCO` [Compound 780078]: the results for the Kd on CLB2 and at PDE6D [2] were 2.34 µM and 0.488 µM, respectively.

As for `CC(C)c1c(C(=O)Nc2ccccc2)c(-c2ccccc2)c(-c2ccc(F)cc2)n1CCCCCCC(=O)O` [Compound 780728], the Kd at CLB2 came out at 1.65 µM; on PDE6D [2], 0.35 µM.

On to `CC(C)c1c(C(=O)Nc2ccccc2)c(-c2ccccc2)c(-c2ccc(F)cc2)n1CCS(=O)O` [Compound 783666], for which, at CLB2, the Kd amounted to 1.85 µM.

On to `CC(C)c1c(C(=O)Nc2ccccc2)c(-c2ccccc2)c(-c2ccc(F)cc2)n1Cc1ccccc1` [Compound 780000], for which the Kd at PDE6D [2] turned out to be 0.598 µM.

Consider `CC(C)c1c(C(=O)Nc2ccccc2)c(-c2ccccc2)c(-c2ccc(F)cc2)n1CC(O)CC(=O)O` (centres unmarked) [Compound 783770], for which the Kd was 0.335 µM on CLB2 and 1.1 µM at PDE6D [2].

On PDE6D [2], `CC(C)c1c(C(=O)Nc2ccccc2)c(-c2ccccc2)c(-c2ccc(F)cc2)n1CCOCCO` [Compound 780598] came in with a dissociation constant (Kd) of 0.3 µM.

Regarding `CCC(C)C(CO)n1c(-c2ccc(F)cc2)c(-c2ccccc2)c(C(=O)Nc2ccccc2)c1C(C)C` (centres unmarked) [Compound 780936], the dissociation constant (Kd) was 3 µM on CLB2 and 0.141 µM on PDE6D [2].

On to `CC(C)c1c(C(=O)Nc2ccccc2)c(-c2ccccc2)c(-c2ccc(F)cc2)n1CCN1CCOCC1` [Compound 780052], for which the Kd at CLB2 turned out to be 6 µM; at PDE6D [2], 0.387 µM.

For the molecule `CCOC(=O)CCn1c(-c2ccc(F)cc2)c(-c2ccccc2)c(C(=O)Nc2ccccc2)c1C(C)C` [Compound 780026], the affinity on PDE6D [2], expressed as Kd, was 6.55 µM.

As to `CC(C)c1[nH]c(-c2ccccc2)c(-c2ccccc2)c1C(=O)Nc1ccccc1` [Compound 780858], the Kd on CLB2 is 1.65 µM; at PDE6D [2], 0.06 µM. Moreover, at PDE6D [1], the “fraction of PDE6D-displaying phage bound” value is recorded as “candidate lead compounds”.

Take `CC(C)c1c(C(=O)Nc2ccccc2)c(-c2ccccc2)c(-c2ccc(F)cc2)n1C` [Compound 780104]: the values for the Kd at CLB2 and at PDE6D [2] were 6.07 µM and 0.114 µM, respectively. Besides, the “fraction of PDE6D-displaying phage bound” value at PDE6D [1] is on record as “candidate lead compounds”.

For the molecule `CC(C)c1c(C(=O)Nc2ccccc2)c(-c2ccccc2)c(-c2ccc(F)cc2)n1CCCCCCO` [Compound 780702], the Kd at CLB2 stood at 2 µM; on PDE6D [2], 0.114 µM.

For `CC(=O)NCCn1c(-c2ccc(F)cc2)c(-c2ccccc2)c(C(=O)Nc2ccccc2)c1C(C)C` [Compound 780754], the Kd at CLB2 worked out at 1.83 µM; at PDE6D [2], 0.058 µM. In addition, at HMG-CoA reductase, the “inhibition of the activity of HMG-CoA reductase” value is “none of the tested compounds inhibited”.
